Test results reported in patent publication US20220282304A1, “SAME-SAMPLE ANTIBIOTIC SUSCEPTIBILITY TEST AND RELATED COMPOSITIONS, METHODS AND SYSTEMS” (CALIFORNIA INSTITUTE OF TECHNOLOGY, priority 2021, published 2022).

Tested on: Escherichia coli K12
Experiment: Digital same-sample filtration AST at four cell densities (Example 7)
Assay type: cell-based
Details: for treated condition EINAPV (fraction extracellular): untreated EINAPV 0; for Both (number of wells) / Empty (number of wells) / Extracellular only (number of wells) / Intracellular only (number of wells): 60 minutes 37° C., qPCR
Procedure: The inoculum was small enough that no detectable difference in the sample's optical density at 600 mm (OD600) was detectable by a spectrophotometer with a sensitivity of 0.01 absorbance units. After an incubation at 37° C., the media became turbid with an OD600 of 0.22 absorbance units after 2.25 hours of incubation.
In this experiment, the number and volume of sample partitions was restricted, for logistical reasons, to 96 partitions 10 μL in volume, specifically the wells of a 96-well plate. A goal was chosen of having a >98% chance of ending up with at least 48 empty partitions. When all partitions are the same volume, the following formula relates the expected number of empty partitions, the partition volume, and the density of cells.
N is the total number of partitions, n is the number of empty partitions, V is the partition volume, D is the density of cells, and t is a threshold probability chosen by the practitioner. Thus, in order to achieve digital sample partitioning with the available 96-well plate, each 10 μL sample of the specimen practically contains between 0.02 and 2.5 cells on average. In this experiment, densities of 0, 0.5, 1, and 2 cells per sample were targeted. Due to systematic bias in the conversion of OD600 to cell density, the actual densities achieved were closer to 0, 0.09375, 0.1875, and 0.375 cells per sample. The specimen itself was diluted to a density of 37.5 CFU/mL (0.0375 cells/μL), 18.75 CFU/mL, and 9.375 CFU/mL to achieve the target sample densities. For the 0 cell samples, the specimen comprised sterile media.
To begin the AST protocol, the 4 contrived clinical specimen dilutions were physically split into the 24 partitions each by transferring 10 μL of the sample, in 24 separate transfers (actually 3 transfers with a multichannel pipette of each dilution), to wells of a 96-well microtiter plate. Each well contained 15 μL of Mueller-Hinton Broth (MHB) growth media. Half of the wells (48) contained 0 μg/mL of dissolved ETP antibiotic and served as reference condition antibiotic exposures. The other half of the wells contained 1.67 μg/mL of ETP (for a final concentration of 1.0 μg/mL) and served as 48 treated condition antibiotic exposures. Thus, in total there were 8 groups of 12 replicate wells: a treated and an untreated group of wells for each of the four specimen dilutions. In actuality, however, due to operator error, 4 treated 0 cell conditions and 4 untreated 0 cell conditions were converted into the corresponding 0.1875 cell conditions.
The 96 antibiotic exposures were incubated at 37° C. for 60 minutes.
The entire volume of each antibiotic exposure was transferred to a Millipore® 96-well sterile polystyrene MultiScreenHTS® filter plate (Millipore-Sigma MSGVS2210). Each well of the filter plate contained a hydrophilic polyvinylidene fluoride (PVDF) filter membrane with a 0.22 μm pore size. A 96-well polypropylene microtiter plate was affixed to the bottom of the filter plate. At approximately 78 minutes after the start of the exposure, the antibiotic exposures were centrifuged at 2200 relative centrifugal force to speed the passage of the antibiotic exposure through the filter and into 96-well microtiter plate. The collected fluid was called the “filtrate.” It is expected that the filtrate will contain all or most of the extracellular nucleic acids present in the antibiotic exposure, but none of the intracellular nucleic acids in the antibiotic exposure.
As soon as possible (e.g. 0-10 minutes) after the centrifugation of the filter plate, […] of fresh MHB media was spun through the filters after the first centrifugation (above) to wash away residual extracellular nucleic acids present in the small amount (about 3 μL) of fluid wetting the filters. This wash fluid is not collected with the filtrates.
The filtrates were frozen at −80° C. to prevent hypothetical rRNA degradation. Lucigen DNA Extraction Buffer was not used to “extract” the filtrate DNA. […]

[1] = Treated 1.0 μg ETP/mL, batch culture dilution 0 cells, 8 partitions
[2] = Treated 1.0 μg ETP/mL, batch culture dilution 0.09375 cells, 12 partitions
[3] = Treated 1.0 μg ETP/mL, batch culture dilution 0.1875 cells, 16 partitions
[4] = Treated 1.0 μg ETP/mL, batch culture dilution 0.375 cells, 12 partitions
[5] = Treated 1.0 μg ETP/mL, batch culture dilution 0 cells
[6] = Treated 1.0 μg ETP/mL, batch culture dilution 0.09375 cells
[7] = Treated 1.0 μg ETP/mL, batch culture dilution 0.1875 cells
[8] = Treated 1.0 μg ETP/mL, batch culture dilution 0.375 cells

SMILES: C[C@@H](O)[C@H]1C(=O)N2C(C(=O)O)=C(S[C@@H]3CN[C@H](C(=O)Nc4cccc(C(=O)O)c4)C3)[C@H](C)[C@H]12 [ETP, ertapenem]
- treated condition EINAPV (fraction extracellular) (1.0 μg/mL ETP, non-zero dilution 0.09375 cells): 1
- treated condition EINAPV (fraction extracellular) (1.0 μg/mL ETP, non-zero dilution 0.1875 cells): 1
- treated condition EINAPV (fraction extracellular) (1.0 μg/mL ETP, non-zero dilution 0.375 cells): 1
- susceptibility call (measured TRPQ higher than APTV) (1.0 μg/mL ETP, one pooled treated vs one pooled reference condition): susceptible
- susceptibility call (binomial exact test) (1.0 μg/mL ETP, significance threshold 0.001): susceptible
- Both (number of wells) [1]: 0
- Empty (number of wells) [1]: 8
- Extracellular only (number of wells) [1]: 0
- Intracellular only (number of wells) [1]: 0
- Both (number of wells) [2]: 0
- Empty (number of wells) [2]: 10
- Extracellular only (number of wells) [2]: 2
- Intracellular only (number of wells) [2]: 0
- Both (number of wells) [3]: 0
- Empty (number of wells) [3]: 13
- Extracellular only (number of wells) [3]: 3
- Intracellular only (number of wells) [3]: 0
- Both (number of wells) [4]: 0
- Empty (number of wells) [4]: 2
- Extracellular only (number of wells) [4]: 10
- Intracellular only (number of wells) [4]: 0
- Intact (expected number of cells) [5]: 0
- Killed (expected number of cells) [5]: 0
- Intact (expected number of cells) [6]: 0
- Killed (expected number of cells) [6]: 2.14
- Intact (expected number of cells) [7]: 0
- Killed (expected number of cells) [7]: 3.32
- Intact (expected number of cells) [8]: 0
- Killed (expected number of cells) [8]: 15.69
- estimated cells lysed, all treated samples pooled (Treated 1.0 μg ETP/mL, sum over dilutions, rounded to 21 lysis events): 21.25
